# Tests used:
# [1] = molecular target: T1, MAP/microtubule affinity-regulating kinase 4 (Homo sapiens) (UniProt Q96L34); assay: Selectivity interaction (KinomeScan (DiscoverX)) EUB0000229b MARK4; conditions: at 10 µM
# T1 sequence (whole entry): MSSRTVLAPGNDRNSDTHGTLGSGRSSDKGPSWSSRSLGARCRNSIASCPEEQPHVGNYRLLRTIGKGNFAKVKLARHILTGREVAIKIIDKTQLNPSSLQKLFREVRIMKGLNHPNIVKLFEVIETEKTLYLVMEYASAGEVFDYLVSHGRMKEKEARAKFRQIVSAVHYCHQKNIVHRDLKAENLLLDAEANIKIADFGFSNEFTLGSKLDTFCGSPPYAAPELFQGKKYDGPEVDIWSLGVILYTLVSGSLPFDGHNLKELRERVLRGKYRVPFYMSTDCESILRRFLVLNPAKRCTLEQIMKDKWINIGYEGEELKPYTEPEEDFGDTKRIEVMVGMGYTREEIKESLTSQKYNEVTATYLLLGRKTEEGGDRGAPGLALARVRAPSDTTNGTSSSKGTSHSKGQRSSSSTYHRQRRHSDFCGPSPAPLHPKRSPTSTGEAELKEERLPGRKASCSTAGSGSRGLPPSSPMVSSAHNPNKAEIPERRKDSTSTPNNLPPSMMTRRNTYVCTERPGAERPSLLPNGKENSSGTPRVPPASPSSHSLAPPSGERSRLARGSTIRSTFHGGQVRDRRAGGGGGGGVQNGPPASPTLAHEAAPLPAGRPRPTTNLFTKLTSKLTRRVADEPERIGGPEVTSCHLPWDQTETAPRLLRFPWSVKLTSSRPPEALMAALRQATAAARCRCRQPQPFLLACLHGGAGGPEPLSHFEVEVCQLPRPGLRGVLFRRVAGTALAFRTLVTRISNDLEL
# [2] = molecular target: MAP kinase-activated protein kinase 3 (Homo sapiens) (UniProt Q16644); assay: Selectivity interaction (Upstate Kinase Profiler service (Millipore)) EUB0000056c MAPKAPK3; conditions: at 1 µM
# Sequence of MAP kinase-activated protein kinase 3 (Homo sapiens) (Q16644 whole entry, looked up): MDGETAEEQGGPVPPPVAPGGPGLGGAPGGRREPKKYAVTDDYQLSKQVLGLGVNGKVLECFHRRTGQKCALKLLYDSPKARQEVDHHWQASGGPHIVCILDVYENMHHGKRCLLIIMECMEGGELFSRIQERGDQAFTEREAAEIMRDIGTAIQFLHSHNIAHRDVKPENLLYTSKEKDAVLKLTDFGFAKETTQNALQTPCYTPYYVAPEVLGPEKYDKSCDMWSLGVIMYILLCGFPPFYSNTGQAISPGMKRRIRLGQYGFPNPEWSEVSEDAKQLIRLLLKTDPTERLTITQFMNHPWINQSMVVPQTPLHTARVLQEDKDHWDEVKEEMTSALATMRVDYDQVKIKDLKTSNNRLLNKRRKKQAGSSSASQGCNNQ
# [3] = molecular target: Phosphatidylinositol 4-kinase type 2-beta (Homo sapiens) (UniProt Q8TCG2); assay: Selectivity interaction (ProQinase) EUB0000171b PI4K2B
# Sequence of Phosphatidylinositol 4-kinase type 2-beta (Homo sapiens) (Q8TCG2 whole entry): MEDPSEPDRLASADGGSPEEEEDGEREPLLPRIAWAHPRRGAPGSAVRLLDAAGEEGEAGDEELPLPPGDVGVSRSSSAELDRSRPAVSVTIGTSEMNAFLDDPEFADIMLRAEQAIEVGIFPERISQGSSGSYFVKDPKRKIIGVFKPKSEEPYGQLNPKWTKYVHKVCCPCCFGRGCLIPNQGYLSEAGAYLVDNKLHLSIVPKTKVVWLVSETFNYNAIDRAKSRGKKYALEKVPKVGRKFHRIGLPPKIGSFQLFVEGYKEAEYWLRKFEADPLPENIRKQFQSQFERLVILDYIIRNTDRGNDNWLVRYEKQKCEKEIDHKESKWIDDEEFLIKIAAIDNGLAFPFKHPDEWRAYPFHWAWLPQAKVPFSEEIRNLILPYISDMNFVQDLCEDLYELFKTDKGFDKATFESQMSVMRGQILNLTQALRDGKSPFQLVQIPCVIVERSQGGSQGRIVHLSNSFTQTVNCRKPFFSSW
# [4] = molecular target: Cyclin-dependent kinase inhibitor 2A (Homo sapiens, UniProt P42771); assay: Selectivity interaction (Kinase panel (33PanQinase(R) Activity Assay)) EUB0000877a CDKN2A
# Sequence of Cyclin-dependent kinase inhibitor 2A (P42771 whole entry): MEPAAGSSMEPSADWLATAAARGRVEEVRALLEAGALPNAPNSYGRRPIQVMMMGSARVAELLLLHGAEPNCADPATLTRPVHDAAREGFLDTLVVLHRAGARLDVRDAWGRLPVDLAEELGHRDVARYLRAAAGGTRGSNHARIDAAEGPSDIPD
# [5] = molecular target: MAP/microtubule affinity-regulating kinase 3 (Homo sapiens) (UniProt P27448); assay: Selectivity interaction (ActivX KiNativ screen (kinase selectivity in THP-1 cell lysates)) EUB0000639a MARK3; assay type: subcellular; conditions: lysate, at 5 µM
# Sequence of MAP/microtubule affinity-regulating kinase 3 (Homo sapiens) (P27448 whole entry, looked up): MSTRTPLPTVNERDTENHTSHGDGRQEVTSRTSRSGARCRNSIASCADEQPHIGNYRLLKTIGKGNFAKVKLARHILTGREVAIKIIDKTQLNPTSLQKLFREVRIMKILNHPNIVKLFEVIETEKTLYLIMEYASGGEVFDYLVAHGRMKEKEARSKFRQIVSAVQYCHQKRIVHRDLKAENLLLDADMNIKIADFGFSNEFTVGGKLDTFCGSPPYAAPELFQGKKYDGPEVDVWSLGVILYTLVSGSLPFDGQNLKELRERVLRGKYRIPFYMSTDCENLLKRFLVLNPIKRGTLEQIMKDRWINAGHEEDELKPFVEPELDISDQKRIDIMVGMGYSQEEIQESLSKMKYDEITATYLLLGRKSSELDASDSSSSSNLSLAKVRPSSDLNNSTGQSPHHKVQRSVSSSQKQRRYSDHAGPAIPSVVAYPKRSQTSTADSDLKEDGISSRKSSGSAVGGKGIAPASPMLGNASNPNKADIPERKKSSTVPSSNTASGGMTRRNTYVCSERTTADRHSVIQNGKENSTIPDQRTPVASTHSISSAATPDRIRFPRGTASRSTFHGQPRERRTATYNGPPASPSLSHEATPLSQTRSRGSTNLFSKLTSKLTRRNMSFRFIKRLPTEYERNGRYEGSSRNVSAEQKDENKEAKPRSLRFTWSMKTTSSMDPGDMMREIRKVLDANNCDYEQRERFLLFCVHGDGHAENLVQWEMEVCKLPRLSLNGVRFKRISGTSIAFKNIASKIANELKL
# [6] = molecular target: Calcium/calmodulin-dependent protein kinase kinase 2 (Homo sapiens) (UniProt Q96RR4); assay: Selectivity interaction (KinomeScan (DiscoverX)) EUB0001049a CAMKK2; conditions: at 1 µM
# Sequence of Calcium/calmodulin-dependent protein kinase kinase 2 (Homo sapiens) (Q96RR4 2-588 limits assumed): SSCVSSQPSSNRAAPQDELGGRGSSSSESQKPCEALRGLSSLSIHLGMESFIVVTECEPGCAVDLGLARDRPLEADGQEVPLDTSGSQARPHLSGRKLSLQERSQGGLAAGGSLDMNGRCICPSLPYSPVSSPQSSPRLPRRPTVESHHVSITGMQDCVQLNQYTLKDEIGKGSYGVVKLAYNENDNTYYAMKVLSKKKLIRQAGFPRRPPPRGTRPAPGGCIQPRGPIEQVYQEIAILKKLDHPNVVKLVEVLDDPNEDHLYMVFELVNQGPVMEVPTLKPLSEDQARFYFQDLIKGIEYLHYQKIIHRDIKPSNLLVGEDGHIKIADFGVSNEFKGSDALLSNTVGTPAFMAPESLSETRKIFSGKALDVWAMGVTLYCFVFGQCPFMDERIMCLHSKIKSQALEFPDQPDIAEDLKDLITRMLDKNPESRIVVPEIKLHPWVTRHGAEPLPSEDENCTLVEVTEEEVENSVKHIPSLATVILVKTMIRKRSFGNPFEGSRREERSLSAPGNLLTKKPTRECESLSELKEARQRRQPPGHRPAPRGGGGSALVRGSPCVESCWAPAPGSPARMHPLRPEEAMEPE
# [7] = molecular target: Cyclin-dependent kinase 17 (Homo sapiens) (UniProt Q00537); assay: Selectivity interaction (KinomeScan (DiscoverX)) EUB0000695a CDK17; conditions: at 100 nM
# Sequence of Cyclin-dependent kinase 17 (Homo sapiens) (Q00537 whole entry, looked up): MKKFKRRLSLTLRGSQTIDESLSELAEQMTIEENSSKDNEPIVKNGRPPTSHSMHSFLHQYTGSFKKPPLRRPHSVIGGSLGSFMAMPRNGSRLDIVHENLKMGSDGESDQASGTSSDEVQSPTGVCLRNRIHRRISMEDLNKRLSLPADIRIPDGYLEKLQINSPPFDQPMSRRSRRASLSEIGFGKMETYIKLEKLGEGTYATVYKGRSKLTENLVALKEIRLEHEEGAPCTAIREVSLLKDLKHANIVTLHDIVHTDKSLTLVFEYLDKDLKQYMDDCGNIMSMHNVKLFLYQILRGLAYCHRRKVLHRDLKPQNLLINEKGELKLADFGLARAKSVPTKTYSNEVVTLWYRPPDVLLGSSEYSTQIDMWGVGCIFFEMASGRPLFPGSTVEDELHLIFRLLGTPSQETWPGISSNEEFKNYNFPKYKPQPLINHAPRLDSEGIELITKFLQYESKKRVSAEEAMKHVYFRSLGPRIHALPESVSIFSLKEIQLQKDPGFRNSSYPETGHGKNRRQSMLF
# [8] = molecular target: Serine/threonine-protein kinase SIK3 (Homo sapiens) (UniProt Q9Y2K2); assay: Selectivity interaction (KinomeScan (DiscoverX)) EUB0000618a SIK3; conditions: at 10 µM
# [9] = system: eIF-2-alpha kinase GCN2 (Homo sapiens), Q9P2K8 [S808G]; assay: Selectivity interaction (KinomeScan (DiscoverX)) EUB0000618a EIF2AK4; conditions: at 10 µM
# Sequence of eIF-2-alpha kinase GCN2 (Homo sapiens), Q9P2K8 [S808G] (Q9P2K8 whole entry S808G): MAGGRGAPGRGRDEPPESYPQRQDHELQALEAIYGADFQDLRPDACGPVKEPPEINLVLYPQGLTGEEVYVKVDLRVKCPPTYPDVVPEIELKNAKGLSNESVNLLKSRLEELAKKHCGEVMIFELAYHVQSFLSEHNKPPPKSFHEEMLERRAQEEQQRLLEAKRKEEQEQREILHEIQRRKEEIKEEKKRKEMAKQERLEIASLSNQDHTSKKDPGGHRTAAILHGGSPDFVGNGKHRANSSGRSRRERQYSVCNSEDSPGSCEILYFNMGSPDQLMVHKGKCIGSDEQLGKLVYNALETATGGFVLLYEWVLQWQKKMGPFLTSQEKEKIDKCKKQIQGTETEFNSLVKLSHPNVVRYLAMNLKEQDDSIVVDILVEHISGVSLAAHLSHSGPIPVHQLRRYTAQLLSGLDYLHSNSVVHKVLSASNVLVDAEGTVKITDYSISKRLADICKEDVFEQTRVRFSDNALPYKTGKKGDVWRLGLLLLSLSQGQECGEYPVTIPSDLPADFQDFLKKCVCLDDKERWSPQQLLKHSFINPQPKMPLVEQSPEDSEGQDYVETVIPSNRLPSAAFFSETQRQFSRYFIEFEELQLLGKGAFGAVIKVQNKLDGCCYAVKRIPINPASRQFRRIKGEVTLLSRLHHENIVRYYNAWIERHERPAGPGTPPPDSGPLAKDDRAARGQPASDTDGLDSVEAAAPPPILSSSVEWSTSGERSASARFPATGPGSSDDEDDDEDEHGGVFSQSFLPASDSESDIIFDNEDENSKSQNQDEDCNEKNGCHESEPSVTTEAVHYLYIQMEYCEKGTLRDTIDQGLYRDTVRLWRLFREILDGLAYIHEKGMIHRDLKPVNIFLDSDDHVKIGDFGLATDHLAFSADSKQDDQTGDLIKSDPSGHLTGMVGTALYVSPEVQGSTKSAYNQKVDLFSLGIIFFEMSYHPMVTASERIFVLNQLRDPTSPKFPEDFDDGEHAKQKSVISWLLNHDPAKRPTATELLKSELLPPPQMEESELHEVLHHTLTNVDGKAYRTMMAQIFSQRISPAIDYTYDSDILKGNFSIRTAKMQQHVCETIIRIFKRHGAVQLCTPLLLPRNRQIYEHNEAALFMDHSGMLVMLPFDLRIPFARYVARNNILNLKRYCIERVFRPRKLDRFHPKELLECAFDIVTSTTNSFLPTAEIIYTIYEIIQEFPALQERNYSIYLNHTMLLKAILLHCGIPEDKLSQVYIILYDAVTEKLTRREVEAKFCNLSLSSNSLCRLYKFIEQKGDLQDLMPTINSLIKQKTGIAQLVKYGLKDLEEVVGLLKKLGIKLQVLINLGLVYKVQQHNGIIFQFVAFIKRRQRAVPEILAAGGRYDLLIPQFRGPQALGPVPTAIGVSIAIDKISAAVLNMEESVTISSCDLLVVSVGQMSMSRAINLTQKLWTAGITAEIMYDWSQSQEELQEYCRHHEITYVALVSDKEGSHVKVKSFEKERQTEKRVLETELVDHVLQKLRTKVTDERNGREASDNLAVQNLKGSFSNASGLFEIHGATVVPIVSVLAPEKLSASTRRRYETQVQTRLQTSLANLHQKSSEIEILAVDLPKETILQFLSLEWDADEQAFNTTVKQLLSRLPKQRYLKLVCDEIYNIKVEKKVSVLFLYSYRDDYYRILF
# [10] = molecular target: Vasopressin V1a receptor (Homo sapiens) (UniProt P37288); assay: Selectivity interaction (Eurofins CEREP Diversity Profile (receptors and ion channels)) EUB0000279b AVPR1A; conditions: at 10 µM
# Sequence of Vasopressin V1a receptor (Homo sapiens) (P37288 whole entry, looked up): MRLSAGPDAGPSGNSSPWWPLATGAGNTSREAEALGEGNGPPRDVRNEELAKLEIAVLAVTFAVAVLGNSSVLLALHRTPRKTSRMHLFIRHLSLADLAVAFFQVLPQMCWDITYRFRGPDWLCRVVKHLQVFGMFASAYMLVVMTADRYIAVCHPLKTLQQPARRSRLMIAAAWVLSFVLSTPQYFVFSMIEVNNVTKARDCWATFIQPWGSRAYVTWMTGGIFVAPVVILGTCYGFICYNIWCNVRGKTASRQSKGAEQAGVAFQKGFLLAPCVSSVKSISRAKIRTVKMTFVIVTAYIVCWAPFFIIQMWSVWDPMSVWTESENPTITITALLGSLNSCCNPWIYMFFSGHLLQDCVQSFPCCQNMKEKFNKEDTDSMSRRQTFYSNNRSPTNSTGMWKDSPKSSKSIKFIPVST
# [11] = molecular target: T2, Dual specificity mitogen-activated protein kinase kinase 7 (Homo sapiens) (UniProt O14733); assay: Selectivity interaction (KinomeScan (DiscoverX)) EUB0001619a MAP2K7; conditions: at 1 µM
# T2 sequence (whole entry): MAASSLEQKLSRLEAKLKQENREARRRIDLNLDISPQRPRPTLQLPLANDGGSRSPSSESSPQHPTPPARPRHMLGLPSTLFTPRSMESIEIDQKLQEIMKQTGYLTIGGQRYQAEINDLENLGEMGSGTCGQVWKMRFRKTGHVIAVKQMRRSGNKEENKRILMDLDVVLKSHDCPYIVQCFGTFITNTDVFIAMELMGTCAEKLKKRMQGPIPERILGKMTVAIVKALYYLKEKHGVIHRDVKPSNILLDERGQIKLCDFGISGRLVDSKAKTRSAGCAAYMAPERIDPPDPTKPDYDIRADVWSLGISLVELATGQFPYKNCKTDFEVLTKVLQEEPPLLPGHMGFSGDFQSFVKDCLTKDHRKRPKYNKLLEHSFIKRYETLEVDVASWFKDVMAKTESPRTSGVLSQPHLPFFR
# [12] = molecular target: T3, MAP kinase-activated protein kinase 5 (Homo sapiens) (UniProt Q8IW41); assay: Selectivity interaction (KinomeScan (DiscoverX)) EUB0001619a MAPKAPK5; conditions: at 1 µM
# T3 sequence (whole entry): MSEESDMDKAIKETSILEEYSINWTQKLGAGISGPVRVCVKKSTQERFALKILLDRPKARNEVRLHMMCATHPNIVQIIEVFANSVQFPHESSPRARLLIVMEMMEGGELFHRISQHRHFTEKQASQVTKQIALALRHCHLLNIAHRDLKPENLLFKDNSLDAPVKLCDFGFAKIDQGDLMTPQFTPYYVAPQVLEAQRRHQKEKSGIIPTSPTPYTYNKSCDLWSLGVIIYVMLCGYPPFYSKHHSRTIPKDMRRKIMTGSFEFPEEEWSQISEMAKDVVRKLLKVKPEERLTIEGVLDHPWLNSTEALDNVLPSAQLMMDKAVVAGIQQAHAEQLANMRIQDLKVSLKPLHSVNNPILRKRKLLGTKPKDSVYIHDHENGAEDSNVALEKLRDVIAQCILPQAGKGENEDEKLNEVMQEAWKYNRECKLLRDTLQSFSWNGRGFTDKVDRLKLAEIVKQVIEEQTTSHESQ
compound,measurement,setting,value
COc1cc(N(C)c2ccnc3ccc(C(F)(F)F)cc23)cc(OC)c1OC,% binding,[1],87%
Cc1ccc(-c2ccc3c(ccc4sc5c(c43)NC[C@@H](C)NC5=O)n2)cn1,% of inhibition,[2],89%
C=CC(=O)Nc1cccc(C(=O)Nc2ccc(Nc3cc(-c4[nH]c(SC)nc4C)ccn3)cc2)c1,% of control,[3]; at 1 µM,128%
same,% of control,[3]; at 5 µM,120%
CCC(=O)N1CC[C@H](Nc2ncnc3c2CN(c2cnc(OC)c(C(F)(F)F)c2)CC3)C1 [LENIOLISIB],IC50,[4],> 10 µM
CC[C@@H]1[C@H](F)C(=O)N[C@@H]1COc1nccc2cc(C(N)=O)c(OC)cc12 [ZIMLOVISERTIB],% of inhibition,[5],36.9%
COc1cc(Nc2nc(C)cc(-c3cnn4nc(OC)ccc34)n2)cc(C(F)(F)F)c1,% of control,[6],100%
Cc1cc(F)c(C(=O)Nc2cccc(-c3nncn3C(C)C)n2)cc1-n1cnc(C2CC2)c1,% of control,[7],100%
O[C@H]1CC[C@H](Nc2ncc3nc(Nc4c(F)cc(F)cc4F)n([C@H]4CCOC4)c3n2)CC1,% of control,[8],22%
same,% of control,[9],100%
CC(=O)c1cc(-c2ccccc2OCC2CC2)c2ncccn12,% of control,[10],89%
N#Cc1cccc(-c2c[nH]c3ncnc(N4CCOCC4)c23)c1,% of control,[11],80%
same,% of control,[12],100%
